Some test systems named below: SN12C; UO-31; UACC-62; CAKI-1; NCI/ADR-RES; SF-539; A498; CCRF-CEM; LOX IMVI; HOP-62; 786-0; K562; KM12; RXF 393; A549; MOLT-4; TK-10; IGROV-1; HCT-116; M14.
Experiment in all cases: inhibition of tumour cell growth, NCI panel, 48 h

The structures appear in SMILES notation. “And” between values parts separate entries of the source, which are not always exact repeats. Equal entries are not always repeated.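 Grown in 96-well plates, cells were treated for 48 hours with each compound at five concentrations. Insufficient inhibition: endpoint recorded as highest concentration tested. GI50: concentration for 50% inhibition of growth.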 The source made the active and inactive calls. No stated cut-off is given here; in the data, active = GI50 up to about 1.1 µM and inactive = higher.

In the case of `COc1ccc2nc3c4c(nccc4c2c1)-c1ncccc1C3=O`, the GI50 in the assay on SN12C is 0.0508 µM (active); with UO-31, 0.135 µM (active); in the assay with UACC-62 it was 0.048 µM (active); in the assay on CAKI-1, 0.109 µM (active); in the assay with NCI/ADR-RES, 0.201 µM (active); with SF-539, 0.0769 µM (active). The GI50 with A498 was 0.0916 µM (active); in the assay on CCRF-CEM, 0.818 µM (active); with LOX IMVI, 0.00982 µM (active); in the assay on HOP-62 it was 0.0193 µM (active); in the assay on 786-0, 0.0246 µM (active); in the assay with K562, 0.016 µM (active). Also, the GI50 with KM12 was 0.0748 µM (active); with RXF 393, 0.119 µM (active); with A549, 0.113 µM (active); in the assay on MOLT-4 it was 0.847 µM (active); with TK-10, 0.18 µM (active); with IGROV-1, 0.0294 µM (active). The GI50 is 0.0124 µM (active) with HCT-116 and 0.0118 µM (active) with M14.
Regarding `OC(COc1cccc2ccccc12)CN1CCOCC1` (configuration not stated), the GI50 in the assay on SN12C, in the assay on UO-31, with UACC-62, with CAKI-1, in the assay with NCI/ADR-RES and with SF-539 was > 100 µM (inactive) each time. The GI50 in the assay on A498, with CCRF-CEM, in the assay on LOX IMVI, in the assay with HOP-62, in the assay on 786-0 and in the assay with K562 was > 100 µM (inactive) throughout. For the same compound, the GI50 with KM12 was > 100 µM (inactive); with RXF 393 it was > 100 µM (inactive); in the assay on A549, > 100 µM (inactive); in the assay with MOLT-4, 44.6 µM (inactive); with TK-10, > 100 µM (inactive); in the assay on IGROV-1, 39.9 µM (inactive). For the same compound, the GI50 in the assay on HCT-116 and with M14 was > 100 µM (inactive) throughout.
Consider `CC(=O)Oc1cccc2c1C(=O)CCCC2`, for which the GI50 in the assay with SN12C, in the assay on UO-31, in the assay on UACC-62, in the assay on CAKI-1, with NCI/ADR-RES and in the assay with SF-539 was > 100 µM (inactive) in each case. The GI50 in the assay with A498, with CCRF-CEM, with LOX IMVI, in the assay on HOP-62, with 786-0 and with K562 was > 100 µM (inactive) each time. Moreover, the GI50 in the assay on KM12, with RXF 393, in the assay with A549, in the assay with MOLT-4, in the assay with TK-10 and with IGROV-1 was > 100 µM (inactive) throughout. The GI50 in the assay on HCT-116 and in the assay on M14 was > 100 µM (inactive) in each case.
With `CC(C)(C)OC(=O)NC(Cc1ccccc1)C(=O)OCN1C(=O)C2C3C=CC(C2C1=O)C1C2C(=O)N(COC(=O)C(Cc4ccccc4)NC(=O)OC(C)(C)C)C(=O)C2C31` (configuration not stated), the GI50 with SN12C is 25.5 µM (inactive); in the assay with UO-31, 19.5 µM (inactive); in the assay on UACC-62 it was 44.8 µM (inactive); with CAKI-1 it was 27.5 µM (inactive); in the assay with NCI/ADR-RES it was 43 µM (inactive); in the assay with SF-539, 42.4 µM (inactive). The GI50 in the assay on A498 is 25.9 µM (inactive); in the assay on CCRF-CEM it was 2.67 µM (inactive); in the assay on LOX IMVI it was 36.9 µM (inactive); in the assay on HOP-62, 30.4 µM (inactive); in the assay with 786-0, 28.2 µM (inactive); in the assay with K562, 23.1 µM (inactive). Further, the GI50 with KM12 is > 100 µM (inactive); in the assay with RXF 393, 22.7 µM (inactive); in the assay on A549, 8.28 µM (inactive); with MOLT-4 it was 10 µM (inactive); in the assay on TK-10, 31 µM (inactive); in the assay on IGROV-1, 30.4 µM (inactive). Moreover, the GI50 in the assay on HCT-116 is 19.2 µM (inactive); with M14, 38.9 µM (inactive).
Take `CC1=NN(C(=O)CSc2nc3ccc(I)cc3c(=O)n2Cc2ccccc2)C(=O)C1`: the GI50 in the assay on SN12C was 29.3 µM (inactive); with UACC-62, 26.4 µM (inactive); in the assay on CAKI-1 it was 31.8 µM (inactive); with NCI/ADR-RES it was 20.9 µM (inactive); with SF-539, 35.8 µM (inactive); with A498, 22.4 µM (inactive). The GI50 was 27.9 µM (inactive) in the assay on CCRF-CEM; 16.4 µM (inactive) in the assay with LOX IMVI; 39.6 µM (inactive) in the assay with HOP-62; 36.9 µM (inactive) in the assay with 786-0; 23.8 µM (inactive) in the assay with K562; 28.3 µM (inactive) in the assay on KM12. Besides, the GI50 was 25.9 µM (inactive) in the assay with RXF 393; 34 µM (inactive) in the assay on A549; 24.4 µM (inactive) with MOLT-4; 47.6 µM (inactive) in the assay on TK-10; 28.8 µM (inactive) in the assay with IGROV-1; 29.9 µM (inactive) in the assay with HCT-116. Moreover, the GI50 in the assay on M14 was 31.7 µM (inactive).
With `C/C=C(/C)C(=O)O[C@H]1[C@H]2[C@@H]([C@@H](OC(C)=O)[C@H](C)C(=O)[C@@]34C[C@@H](C)C(=O)[C@]3(/C=C(\C)[C@H]1OC(C)=O)O4)C2(C)C`, the GI50 was 2.42 µM (inactive) in the assay on SN12C; 3.85 µM (inactive) in the assay with UO-31; 3.35 µM (inactive) in the assay on UACC-62; 4.42 µM (inactive) in the assay with CAKI-1; 4.12 µM (inactive) in the assay with NCI/ADR-RES; 3.1 µM (inactive) with SF-539. Moreover, the GI50 in the assay on A498 was 4.75 µM (inactive); with CCRF-CEM, 0.463 µM (active); in the assay on LOX IMVI, 3.09 µM (inactive); with HOP-62, 3.15 µM (inactive); in the assay with 786-0, 2.67 µM (inactive); in the assay with K562, 2.6 µM (inactive). Further, the GI50 with KM12 is 5.58 µM (inactive); in the assay with RXF 393, 3.6 µM (inactive); in the assay with MOLT-4, 1.83 µM (inactive); in the assay with TK-10, 3.45 µM (inactive); in the assay with IGROV-1, 4.5 µM (inactive); in the assay on HCT-116, 3.1 µM (inactive). Besides, in the assay with M14, the GI50 is 2.47 µM (inactive).
As to `CC1(C)OC2OC(C(COS(=O)(=O)C(F)(F)F)N=[N+]=[N-])C(OC(=O)c3ccccc3)C2O1` (configuration not stated), the GI50 in the assay on SN12C, in the assay on UO-31, with UACC-62, in the assay with CAKI-1, in the assay with NCI/ADR-RES and in the assay on SF-539 was > 100 µM (inactive) each time. Besides, the GI50 in the assay with A498, with CCRF-CEM, with LOX IMVI, in the assay on HOP-62, in the assay with 786-0 and with K562 was > 100 µM (inactive) in each case. In addition, the GI50 in the assay on KM12 was > 100 µM (inactive); in the assay on RXF 393 it was > 100 µM (inactive) and 59.3 µM (inactive); in the assay on A549, > 100 µM (inactive); with MOLT-4, > 100 µM (inactive); in the assay with TK-10, > 100 µM (inactive); in the assay with HCT-116, > 100 µM (inactive). In the assay with M14, the GI50 was > 100 µM (inactive).

For the origin of these results see ChEMBL document CHEMBL1201862, “PubChem BioAssay data set” (2004).
